For experiment [1], the system named is Candida albicans. The experiment in a line: Antifungal activity against Candida albicans SC5314 assessed as inhibition of biofilm formation by XTT assay. It counts as functional, organism-based. On the technique in general: Formazan colour is commonly taken as a measure of viable cells.
Experiment [2] has as its system Candida albicans. The experiment in a line: Antifungal activity against Candida albicans SC5314 assessed as inhibition of yeast cell to hyphae transition after 4 hrs by microscopic analysis. Particulars: SC5314, 4 h. Type of experiment: functional, organism-based.
Experiment [3] has as its system Candida albicans. The experiment in a line: Antifungal activity against Candida albicans SC5314 by CLSI standard M27-A3 method. It counts as functional.

Molecules are shown by their SMILES. Values after ≈ are worked out from the molar mass of the structure shown. Some results are limits rather than exact numbers.

With `C=C1C(=O)O[C@@H]2C[C@]3(C)[C@@H](CCC(C)=O)[C@@H]3C[C@H]12`, the values for the IC50 with Candida albicans [1] and with Candida albicans [2] were > 128 µg/mL and 100 µg/mL (≈ 403 µM), respectively.
Regarding `C=C1C(=O)O[C@@H]2C[C@@]3(C)CCC[C@H](C)[C@@]34O[C@H]4[C@H]12`, the half-inhibitory concentration (IC50) in the experiment on Candida albicans [1] is > 128 µg/mL; in the experiment with Candida albicans [2], 118 µg/mL (≈ 477 µM).
In the experiment on Candida albicans [3], `C=C1C(=O)O[C@@H]2C[C@H](C)C(CCC(C)=O)=CC[C@H]12` [TOMENTOSIN] gave an MIC50 of 128 µg/mL (≈ 515 µM). The IC50 in the experiment on Candida albicans [1] was > 128 µg/mL; in the experiment with Candida albicans [2] it was 31.6 µg/mL (≈ 127 µM).
As for `C=C1C(=O)O[C@H]2C[C@H](C)[C@@H]3CC[C@@]4(C)O[C@@]34C[C@H]12`, the IC50 in the experiment on Candida albicans [1] was found to be 38 µg/mL (≈ 153 µM); with Candida albicans [2] it was 106 µg/mL (≈ 429 µM).
The like results for `C=C1C(=O)O[C@@H]2C[C@H](C)C(CCC(C)O)=CC[C@H]12` (stereo not given in full) were, in that order, > 128 µg/mL and > 128 µg/mL.
Regarding `C=C1C(=O)O[C@@H]2C[C@H](C)C(CCC(C)OC(=O)C(C)CC)=CC[C@H]12` (stereo not given in full), the figures for the IC50 in the experiment on Candida albicans [1] and in the experiment with Candida albicans [2] were > 128 µg/mL and 105 µg/mL (≈ 314 µM), respectively.
`C=C1C(=O)O[C@@H]2C[C@@]3(C)CCCC(=C)[C@]3(O)C[C@H]12` [TELEKIN]: the IC50 in the experiment on Candida albicans [1] was 36 µg/mL (≈ 145 µM); with Candida albicans [2] it was > 128 µg/mL.
Take `C=C(C(=O)O)[C@@H]1CC[C@@]2(C)CCC=C(C)C2C1` (stereo not given in full): the IC50 with Candida albicans [1] and with Candida albicans [2] was > 128 µg/mL throughout.
Consider `C=C1C(=O)O[C@@H]2C[C@@]3(C)C[C@@H](O)CC(=C)[C@@H]3C[C@H]12` [IVALIN], for which the results for the IC50 in the experiment on Candida albicans [1] and in the experiment with Candida albicans [2] were 15.4 µg/mL (≈ 62 µM) and > 128 µg/mL, respectively.
Regarding `OC(Cn1cncn1)(Cn1cncn1)c1ccc(F)cc1F` [FLUCONAZOLE], the IC50 with Candida albicans [1] was found to be 2 µg/mL (≈ 6.53 µM).

In general, IC50 refers to the concentration that gives 50% inhibition. By MIC50 is commonly meant an inhibitory concentration at the 50% level, which refers to growth in some studies and to a panel of isolates in others.

(Values after ChEMBL document CHEMBL3627687, “Sesquiterpenes from Carpesium macrocephalum inhibit Candida albicans biofilm formation and dimorphism” (Bioorg Med Chem Lett, 2015).)
